For data set [1], the system named is Limosilactobacillus reuteri. In words: Effect on growth of Lactobacillus reuteri at 0.5 to 100 uM incubated for 24 hrs under anaerobic conditions by spectrophotometry. It counts as organism-based.
Data set [2] can be described thus: AUC (0 to 24 hrs) in CD1 mouse at 1 mg/kg, iv. On the set-up: dose 1 mg/kg, time < 24 hr, route intravenous. Format: ADME, organism-based. As to conditions: in vivo.
Data set [3] has as its target Toxin A (Clostridioides difficile, UniProt P16154). In words: Inhibition of Clostridium difficile toxin A […] assessed as reduction in caspase 3/7 activation pre-incubated for 1 hr before TcdA addition by luminescence based assay1. It counts as cell-based.
Data set [4] relates to Bacteroides fragilis. In words: Effect on growth of Bacteroides fragilis at 0.5 to 100 uM incubated for 48 hrs under anaerobic conditions by spectrophotometry. It counts as organism-based.
Data set [5] can be described thus: Cmax in CD1 mouse at 10 mg/kg, po. It counts as ADME, organism-based. On the set-up: dose 10 mg/kg, route oral. As to conditions: in vivo.
Data set [6] in a line: Stability in human liver microsomes assessed as parent compound remaining level incubated for 15 mins. It counts as ADME, microsome. As to conditions: read-out: Stability. Background: Liver microsomes are vesicles of endoplasmic reticulum, rich in cytochrome P450 enzymes.
A short description of data set [7]: Stability in mouse liver microsomes assessed as parent compound remaining level incubated for 15 mins. Format: ADME, microsome. As to conditions: read-out: Stability.
Data set [8] in a line: Stability in mouse plasma assessed as parent compound remaining measured during 0 to 120 mins post dose. It counts as ADME, cell-free.
Data set [9] in a line: Elimination half life in CD1 mouse at 1 mg/kg, iv. Format: ADME, organism-based. As to conditions: in vivo, read-out: beta t1/2 (converted).
The nature of data set [10]: Apparent volume of distribution in CD1 mouse at 1 mg/kg, iv. As to conditions: in vivo, read-out: Vz. It counts as ADME, organism-based.
The nature of data set [11]: Tmax in CD1 mouse at 10 mg/kg, po. Format: ADME, organism-based. As to conditions: in vivo.
Data set [12] can be described thus: AUC (0 to 24 hrs) in CD1 mouse at 10 mg/kg, po. As to conditions: in vivo. On the set-up: dose 10 mg/kg, time < 24 hr, route oral. Format: ADME, organism-based.
Data set [13] is described as follows: Cmax in CD1 mouse at 1 mg/kg, iv. Format: ADME, organism-based. On the set-up: dose 1 mg/kg, route intravenous. As to conditions: in vivo.
Data set [14] addresses T1, Toxin B (Clostridioides difficile, UniProt P18177). In words: Inhibition of C-terminal 6-His tagged recombinant Clostridium difficile toxin B catalytic fragment (Met1 to Leu543 residues) assessed as reduction in glucosyltransferase domain UDP-glucose hydrolysis activity using UDP-glucose and ADP Alexa633 tracer incubated fore 3 hrs by fluorescence polarization assay. (In general: In fluorescence polarisation assays a small probe gives low polarisation when free and higher when bound to something large.)

In data set [15] the test system is Clostridioides difficile. In words: Effect on growth of Clostridium difficile at 0.5 to 100 uM incubated for 24 hrs under anaerobic conditions by spectrophotometry. Format: functional, organism-based.
Data set [16] in a line: Clearance in CD1 mouse at 1 mg/kg, iv. Format: ADME, organism-based. As to conditions: in vivo.
Data set [17] has as its target T1, Toxin B. In words: Inhibition of Clostridium difficile toxin B […] assessed as reduction in caspase 3/7 activation pre-incubated for 1 hr before TcdB addition by luminescence based assay1. It counts as cell-based.
The subject of data set [18] is Bifidobacterium longum. In words: Effect on growth of Bifidobacterium longum at 0.5 to 100 uM incubated for 24 hrs under anaerobic conditions by spectrophotometry. Format: organism-based.
Data set [19] is described as follows: Stability in mouse plasma assessed as parent compound remaining measured after 15 mins post dose. As to conditions: read-out: Stability. It counts as ADME, cell-free.
Data set [20] in a line: Stability in mouse plasma assessed as parent compound remaining measured after 2 hrs post dose. It counts as ADME, cell-free.

Each structure is given as a SMILES string. Active and inactive are the calls of the source.

T1 sequence (P18177 whole entry, the tested form may be a part): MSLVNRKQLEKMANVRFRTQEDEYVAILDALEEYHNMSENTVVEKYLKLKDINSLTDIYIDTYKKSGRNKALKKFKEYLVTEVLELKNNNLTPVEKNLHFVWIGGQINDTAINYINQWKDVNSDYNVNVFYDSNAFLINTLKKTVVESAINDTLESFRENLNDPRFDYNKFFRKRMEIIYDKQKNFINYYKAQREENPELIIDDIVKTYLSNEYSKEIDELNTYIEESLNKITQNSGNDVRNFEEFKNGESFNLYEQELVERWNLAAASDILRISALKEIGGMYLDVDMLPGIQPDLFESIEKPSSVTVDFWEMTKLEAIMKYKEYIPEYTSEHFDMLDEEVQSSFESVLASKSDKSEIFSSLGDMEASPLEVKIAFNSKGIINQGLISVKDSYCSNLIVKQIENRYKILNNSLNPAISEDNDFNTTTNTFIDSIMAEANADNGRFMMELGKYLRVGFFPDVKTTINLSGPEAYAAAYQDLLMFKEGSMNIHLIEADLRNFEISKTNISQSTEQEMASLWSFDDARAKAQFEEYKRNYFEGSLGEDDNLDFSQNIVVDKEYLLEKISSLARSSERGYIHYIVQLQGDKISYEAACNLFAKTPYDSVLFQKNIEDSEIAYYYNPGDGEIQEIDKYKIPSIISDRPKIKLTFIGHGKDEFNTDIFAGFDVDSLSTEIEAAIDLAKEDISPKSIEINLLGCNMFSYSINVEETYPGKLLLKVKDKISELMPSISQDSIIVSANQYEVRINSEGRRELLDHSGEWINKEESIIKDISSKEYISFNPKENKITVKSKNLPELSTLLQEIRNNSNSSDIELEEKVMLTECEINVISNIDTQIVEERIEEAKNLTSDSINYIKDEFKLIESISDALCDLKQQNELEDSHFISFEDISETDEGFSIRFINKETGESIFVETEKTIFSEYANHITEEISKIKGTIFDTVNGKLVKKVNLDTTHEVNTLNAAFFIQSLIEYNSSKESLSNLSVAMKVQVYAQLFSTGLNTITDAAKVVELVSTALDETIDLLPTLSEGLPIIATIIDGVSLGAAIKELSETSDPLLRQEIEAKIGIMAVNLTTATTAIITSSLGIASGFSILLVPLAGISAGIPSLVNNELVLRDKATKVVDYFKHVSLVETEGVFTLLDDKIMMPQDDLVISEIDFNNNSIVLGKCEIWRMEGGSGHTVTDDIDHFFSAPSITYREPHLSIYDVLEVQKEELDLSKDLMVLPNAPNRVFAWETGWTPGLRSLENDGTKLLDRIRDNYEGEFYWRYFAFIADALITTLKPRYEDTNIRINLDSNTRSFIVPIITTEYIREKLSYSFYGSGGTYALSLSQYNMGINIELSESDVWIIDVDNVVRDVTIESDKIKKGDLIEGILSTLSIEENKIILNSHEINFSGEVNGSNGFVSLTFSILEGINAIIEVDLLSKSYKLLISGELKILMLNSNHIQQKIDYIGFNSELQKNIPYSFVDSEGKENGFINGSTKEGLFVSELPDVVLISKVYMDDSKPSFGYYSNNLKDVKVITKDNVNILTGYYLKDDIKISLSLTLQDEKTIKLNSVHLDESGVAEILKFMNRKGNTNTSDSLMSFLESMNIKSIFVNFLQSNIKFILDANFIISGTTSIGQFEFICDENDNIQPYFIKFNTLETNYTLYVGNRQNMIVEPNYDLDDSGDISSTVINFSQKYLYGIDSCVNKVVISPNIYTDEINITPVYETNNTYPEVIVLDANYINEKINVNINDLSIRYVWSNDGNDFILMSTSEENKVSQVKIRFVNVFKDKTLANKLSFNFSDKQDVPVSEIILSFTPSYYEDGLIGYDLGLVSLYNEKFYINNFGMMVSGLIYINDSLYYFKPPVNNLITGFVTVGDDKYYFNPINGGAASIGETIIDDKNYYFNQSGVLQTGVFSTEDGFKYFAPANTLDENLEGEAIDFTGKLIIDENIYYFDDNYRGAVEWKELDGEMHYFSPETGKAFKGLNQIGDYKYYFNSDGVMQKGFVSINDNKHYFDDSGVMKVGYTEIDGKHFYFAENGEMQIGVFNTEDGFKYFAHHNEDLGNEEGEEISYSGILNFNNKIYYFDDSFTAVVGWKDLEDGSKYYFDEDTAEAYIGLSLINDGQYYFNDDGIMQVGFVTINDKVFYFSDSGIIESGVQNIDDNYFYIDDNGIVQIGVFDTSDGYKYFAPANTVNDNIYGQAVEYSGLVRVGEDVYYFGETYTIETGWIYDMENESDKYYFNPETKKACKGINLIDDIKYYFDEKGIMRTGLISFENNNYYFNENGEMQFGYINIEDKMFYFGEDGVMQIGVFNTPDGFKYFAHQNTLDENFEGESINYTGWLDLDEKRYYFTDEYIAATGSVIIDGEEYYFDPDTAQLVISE
Toxin A, sequence (P16154 whole entry): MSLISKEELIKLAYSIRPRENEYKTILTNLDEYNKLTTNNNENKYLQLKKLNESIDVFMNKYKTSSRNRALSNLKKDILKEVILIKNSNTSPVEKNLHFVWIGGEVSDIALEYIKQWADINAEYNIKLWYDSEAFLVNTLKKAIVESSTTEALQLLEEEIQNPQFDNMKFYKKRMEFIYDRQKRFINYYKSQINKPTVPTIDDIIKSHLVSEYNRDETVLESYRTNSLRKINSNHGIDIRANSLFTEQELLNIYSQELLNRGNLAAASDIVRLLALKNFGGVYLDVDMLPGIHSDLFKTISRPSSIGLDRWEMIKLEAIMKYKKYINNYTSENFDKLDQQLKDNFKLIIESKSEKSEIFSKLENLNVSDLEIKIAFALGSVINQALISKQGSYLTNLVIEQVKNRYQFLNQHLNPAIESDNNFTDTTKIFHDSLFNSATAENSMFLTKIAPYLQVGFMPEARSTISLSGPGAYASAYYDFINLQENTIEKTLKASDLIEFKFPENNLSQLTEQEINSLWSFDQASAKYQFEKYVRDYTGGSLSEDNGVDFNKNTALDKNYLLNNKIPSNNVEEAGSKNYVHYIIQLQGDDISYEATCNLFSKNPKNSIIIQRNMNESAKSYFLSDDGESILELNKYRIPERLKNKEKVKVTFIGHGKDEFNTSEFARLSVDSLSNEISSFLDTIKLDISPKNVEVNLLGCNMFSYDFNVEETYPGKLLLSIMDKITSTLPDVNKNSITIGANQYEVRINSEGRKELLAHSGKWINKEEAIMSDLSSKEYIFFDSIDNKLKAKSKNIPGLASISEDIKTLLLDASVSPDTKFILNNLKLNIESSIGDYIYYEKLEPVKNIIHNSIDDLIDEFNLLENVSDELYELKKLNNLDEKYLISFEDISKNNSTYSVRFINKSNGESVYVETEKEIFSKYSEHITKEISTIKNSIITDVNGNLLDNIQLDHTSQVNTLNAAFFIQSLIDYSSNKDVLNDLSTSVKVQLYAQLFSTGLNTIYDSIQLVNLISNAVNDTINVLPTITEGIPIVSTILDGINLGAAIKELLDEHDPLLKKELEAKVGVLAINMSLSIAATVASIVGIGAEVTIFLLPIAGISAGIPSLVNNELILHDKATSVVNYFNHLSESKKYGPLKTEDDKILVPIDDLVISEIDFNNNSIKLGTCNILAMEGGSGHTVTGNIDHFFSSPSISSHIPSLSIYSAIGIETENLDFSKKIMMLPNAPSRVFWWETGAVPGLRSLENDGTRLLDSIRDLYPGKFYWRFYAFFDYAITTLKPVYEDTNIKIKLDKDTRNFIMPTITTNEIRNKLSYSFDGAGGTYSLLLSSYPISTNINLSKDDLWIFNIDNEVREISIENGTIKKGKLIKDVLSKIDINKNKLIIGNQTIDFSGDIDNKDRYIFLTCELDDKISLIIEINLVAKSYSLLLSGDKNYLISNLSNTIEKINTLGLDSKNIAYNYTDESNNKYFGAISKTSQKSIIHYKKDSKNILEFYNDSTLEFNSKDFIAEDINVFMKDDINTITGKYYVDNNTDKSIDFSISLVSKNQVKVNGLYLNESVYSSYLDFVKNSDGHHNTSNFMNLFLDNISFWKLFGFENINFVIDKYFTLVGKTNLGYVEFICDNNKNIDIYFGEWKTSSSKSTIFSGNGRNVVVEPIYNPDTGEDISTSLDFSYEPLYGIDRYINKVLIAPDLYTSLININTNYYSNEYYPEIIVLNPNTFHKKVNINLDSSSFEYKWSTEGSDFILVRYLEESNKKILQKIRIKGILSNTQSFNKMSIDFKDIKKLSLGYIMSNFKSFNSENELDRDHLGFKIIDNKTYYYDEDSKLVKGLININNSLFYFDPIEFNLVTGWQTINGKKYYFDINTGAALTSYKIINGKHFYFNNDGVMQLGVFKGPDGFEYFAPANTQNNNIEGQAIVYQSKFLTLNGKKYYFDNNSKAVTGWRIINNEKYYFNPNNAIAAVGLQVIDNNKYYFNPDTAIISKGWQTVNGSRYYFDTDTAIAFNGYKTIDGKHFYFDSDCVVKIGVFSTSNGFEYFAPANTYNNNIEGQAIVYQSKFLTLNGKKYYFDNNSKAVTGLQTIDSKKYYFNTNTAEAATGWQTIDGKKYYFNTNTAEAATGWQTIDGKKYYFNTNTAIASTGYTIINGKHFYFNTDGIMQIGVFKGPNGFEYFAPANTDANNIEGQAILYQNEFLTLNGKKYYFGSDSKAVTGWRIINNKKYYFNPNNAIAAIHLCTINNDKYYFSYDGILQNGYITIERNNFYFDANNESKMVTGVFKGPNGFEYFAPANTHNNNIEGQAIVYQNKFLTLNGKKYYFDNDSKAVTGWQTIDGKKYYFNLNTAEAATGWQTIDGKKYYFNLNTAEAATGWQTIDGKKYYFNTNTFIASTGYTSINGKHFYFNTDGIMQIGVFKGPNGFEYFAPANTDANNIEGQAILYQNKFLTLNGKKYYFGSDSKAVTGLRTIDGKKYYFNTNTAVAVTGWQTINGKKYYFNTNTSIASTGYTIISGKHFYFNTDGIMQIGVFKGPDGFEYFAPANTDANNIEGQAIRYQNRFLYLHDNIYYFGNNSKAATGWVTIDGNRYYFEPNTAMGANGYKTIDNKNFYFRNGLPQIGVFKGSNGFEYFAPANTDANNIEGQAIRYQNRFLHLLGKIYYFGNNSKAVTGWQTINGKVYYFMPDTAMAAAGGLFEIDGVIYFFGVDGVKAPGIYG

By AUC(0-t) is commonly meant the area under the concentration-time curve up to a stated or last time point. Lower therefore signals less exposure. A word on the IC50: it is the point on the concentration scale where inhibition reaches its midpoint. By Cmax is commonly meant the maximum level reached in the sampled fluid or tissue. One may read the Tmax as the time at which the peak concentration occurs. The term clearance denotes the volume of plasma or blood freed of the substance per unit of time. Higher therefore signals efficient removal. Regarding `Cc1ccc(NC(=O)c2ccc(CN3C(=O)c4ccc(Cl)cc4NC(=O)[C@H]3Cc3ccccn3)cc2)nc1`, the Activity entry in data set [1], in data set [4] and in data set [18] was “Non-Toxic” in each case. Further, the values for the AUC(0-t) at 24 h in [2] and in data set [12] were 200 ng·h/mL and 1070 ng·h/mL, respectively. Further, the IC50 came to 3200 nM in data set [3], 1 nM in [14] and 170 nM in data set [17]. Moreover, the figures for the Cmax in [5] and in [13] were 2690 ng/mL and 1030 ng/mL, respectively. Moreover, the remaining at 0.25 h in data set [6] stood at 63%; in [7], 43%. Moreover, the Stability entry in data set [8] is “Unstable”. Moreover, in [9], the half-life was 60 min. The Vd in [10] was determined as 6.9 L/kg. The Tmax in data set [11] stood at 15 min. Moreover, the outcome in data set [15] was inactive. The compound also registered a clearance in data set [16] of 76 mL/min/kg.
In the case of `COc1ccc(NC(=O)c2ccc(CN3C(=O)c4ccc(Cl)cc4NC(=O)[C@H]3Cc3ccccn3)cc2)nc1`, the Activity result in [1], in data set [4] and in data set [18] was “Non-Toxic” each time. The figures for the IC50 in data set [3], in [14] and in data set [17] were 1100 nM, 3 nM and 43 nM, respectively. For the same compound, the remaining at 0.25 h was 81% in [6] and 61% in data set [7]. Moreover, the result in data set [15] was inactive.
As to `O=C(Nc1nccs1)c1ccc(CN2C(=O)c3ccc(Cl)cc3NC(=O)[C@H]2Cc2cccnc2)cc1`, the Activity result in data set [1], in [4] and in data set [18] was “Non-Toxic” throughout. Besides, the remaining at 0.25 h in data set [6] was determined as 61%; in [7] it was 67%. Moreover, the IC50 was 42 nM in [14] and 20000 nM in [17]. In [15], the outcome was inactive.
For `O=C(Nc1cnccn1)c1ccc(CN2C(=O)c3ccc(Cl)cc3NC(=O)[C@H]2Cc2cccnc2)cc1`, the Activity result in [1], in data set [4] and in data set [18] was “Non-Toxic” each time. Besides, the values for the remaining at 0.25 h in [6] and in [7] were 92% and 98%, respectively. The IC50 in data set [14] was determined as 78 nM; in [17], 13000 nM. The result in data set [15] was inactive.
As for `O=C(Nc1ccccn1)c1ccc(CN2C(=O)c3ccc(Cl)cc3NC(=O)[C@H]2Cc2ccccn2)cc1`, the Activity result in data set [1], in [4] and in [18] was “Non-Toxic” throughout. Further, the remaining at 0.25 h in data set [6] is 99%; in data set [7] it was 53%. Besides, the IC50 came to 3 nM in [14] and 230 nM in data set [17]. In addition, the outcome in data set [15] was inactive.
Turning to `Cc1cc(NC(=O)c2ccc(CN3C(=O)c4ccc(Cl)cc4NC(=O)[C@H]3Cc3cccnc3)cc2)no1`, the Activity entry in [1], in data set [4] and in [18] was “Non-Toxic” each time. In addition, the results for the remaining at 0.25 h in [6] and in [7] were 100% and 31%, respectively. Also, the IC50 in data set [14] came out at 50 nM; in data set [17] it was 19000 nM. In data set [15], the result was inactive.
`N#Cc1cccc(C[C@@H]2C(=O)Nc3cc(Cl)ccc3C(=O)N2Cc2ccc(C(=O)O)cc2)c1`: the Activity entry in data set [1], in data set [4] and in data set [18] was “Non-Toxic” throughout. In addition, the IC50 in data set [14] turned out to be 6200 nM. Besides, the outcome in [15] was inactive.
For the compound `O=C(O)c1ccc(CN2C(=O)c3ccc(Cl)cc3NC(=O)[C@H]2Cc2ccccn2)cc1`, the Activity result in data set [1], in data set [4] and in data set [18] was “Non-Toxic” throughout. In data set [14], the IC50 amounted to 240 nM. Also, the result in data set [15] was inactive.
For the compound `COc1cnc(NC(=O)c2ccc(CN3C(=O)c4ccc(Cl)cc4NC(=O)[C@H]3Cc3ccccn3)cc2)nc1`, the Activity entry in [1], in [4] and in data set [18] was “Non-Toxic” each time. Besides, the results for the remaining at 0.25 h in data set [19], in data set [6] and in [7] were 50%, 90% and 77%, respectively. Moreover, the results for the AUC(0-t) at 24 h in [2] and in [12] were 2 ng·h/mL and 181 ng·h/mL, respectively. Also, the IC50 in [3] is 2600 nM; in data set [14] it was 7 nM; in data set [17] it was 520 nM. In addition, the Cmax in [5] was found to be 27 ng/mL; in data set [13] it was 2 ng/mL. The Stability result in data set [20] is on record as “Unstable”. In data set [11], the Tmax stood at 30 min. Also, in data set [15], the outcome was inactive.
As for `O=C(O)c1ccc(CN2C(=O)c3ccc(Cl)cc3NC(=O)[C@H]2Cc2cccnc2)cc1`, the Activity result in data set [1], in data set [4] and in data set [18] was “Non-Toxic” throughout. The IC50 in [14] stood at 770 nM. Besides, in data set [15], the outcome was inactive.
Regarding `O=C(Nc1ncccn1)c1ccc(CN2C(=O)c3ccc(Cl)cc3NC(=O)[C@H]2Cc2cccnc2)cc1`, the Activity entry in data set [1], in data set [4] and in [18] was “Non-Toxic” in each case. Moreover, the remaining at 0.25 h is 100% in data set [6] and 88% in data set [7]. The IC50 in data set [14] stood at 18 nM. In addition, the result in data set [15] was inactive.
Consider `Cc1ccccc1C[C@@H]1C(=O)Nc2cc(Cl)ccc2C(=O)N1Cc1ccc(C(=O)O)cc1`, for which the Activity result in [1], in data set [4] and in data set [18] was “Non-Toxic” each time. For the same compound, the IC50 in [14] stood at 3900 nM. Further, the outcome in data set [15] was inactive.
For `O=C(O)c1ccc(CN2C(=O)c3ccc(Cl)cc3NC(=O)[C@@H]2Cc2ccc(O)cc2)cc1`, the Activity entry in data set [1], in data set [4] and in data set [18] was “Non-Toxic” throughout. Also, the IC50 in data set [14] came out at 16000 nM. Further, in data set [15], the result was inactive.
With `O=C(Nc1ccccn1)c1ccc(CN2C(=O)c3ccc(Cl)cc3NC(=O)[C@H]2Cc2cccnc2)cc1`, the Activity entry in data set [1], in data set [4] and in [18] was “Non-Toxic” in each case. The remaining at 0.25 h in data set [6] was determined as 97%; in [7] it was 57%. In addition, the values for the IC50 in data set [14] and in data set [17] were 9 nM and 4500 nM, respectively. Moreover, in data set [15], the result was inactive.

The record behind these values is ChEMBL document CHEMBL4184209, “Identification and initial optimization of inhibitors of Clostridium difficile (C. difficile) toxin B (TcdB)” (Bioorg Med Chem Lett, 2018).
